Results from the supplement of paper PMC10307832.

Assays:
Assay in all cases: relative viability (nuclei count vs DMSO), 5 days (fraction); higher = more cells survive
Calu-6 = test system: Calu-6
In short: (§1)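 Dosing by pin tool came one day after lung cancer cell lines were seeded in 1536-well plates, using either one drug or a fixed anchor-drug dose plus five library-drug doses (not always all listed) in √10 steps. After 5 days, nuclei were counted on 4× images. Relative viability is treated-well nuclei count divided by vehicle-well nuclei count, and values are medians of duplicate plates.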

UMC-11 = test system: UMC-11
In short: as §1

EBC-1 = test system: EBC-1
In short: as §1

IA-LM = test system: IA-LM
In short: as §1

NCI-H1703 = test system: NCI-H1703
In short: as §1

A549 = test system: A549
In short: as §1

NCI-H1299 = test system: NCI-H1299
In short: as §1

SMILES | relative viability (Calu-6; first compound 0.04 µM) | relative viability (Calu-6; first compound 0.1265 µM) | relative viability (Calu-6; first compound 0.4 µM) | relative viability (Calu-6; first compound 4 µM) | relative viability (UMC-11; first compound 0.04 µM) | relative viability (UMC-11; first compound 0.1265 µM) | relative viability (UMC-11; first compound 0.4 µM) | relative viability (UMC-11; first compound 4 µM) | relative viability (EBC-1; first compound 0.04 µM) | relative viability (EBC-1; first compound 0.1265 µM) | relative viability (EBC-1; first compound 0.4 µM) | relative viability (EBC-1; first compound 4 µM) | relative viability (IA-LM; first compound 0.04 µM) | relative viability (IA-LM; first compound 0.1265 µM) | relative viability (IA-LM; first compound 0.4 µM) | relative viability (IA-LM; first compound 4 µM) | relative viability (NCI-H1703; first compound 0.04 µM) | relative viability (NCI-H1703; first compound 0.1265 µM) | relative viability (NCI-H1703; first compound 0.4 µM) | relative viability (NCI-H1703; first compound 4 µM) | relative viability (A549; first compound 0.04 µM) | relative viability (A549; first compound 0.1265 µM) | relative viability (A549; first compound 0.4 µM) | relative viability (A549; first compound 4 µM) | relative viability (NCI-H1299; first compound 0.04 µM) | relative viability (NCI-H1299; first compound 0.1265 µM) | relative viability (NCI-H1299; first compound 0.4 µM) | relative viability (NCI-H1299; first compound 4 µM)
C[C@@H]1CN(CC(=O)Nc2ccc3c(c2)Cc2cccc(-c4cc(=O)cc(N5CCOCC5)o4)c2S3)C[C@H](C)O1 + CC1(C)CCC(c2ccc(Cl)cc2)=C(CN2CCN(c3ccc(C(=O)NS(=O)(=O)c4ccc(N[C@H](CCN5CCOCC5)CSc5ccccc5)c(S(=O)(=O)C(F)(F)F)c4)cc3)CC2)C1 [Navitoclax] (partner 0.5 µM) | 0.871 | 0.831 | 0.889 | 0.54 | 0.32 | 0.288 | 0.301 | 0.229 | 0.405 | 0.432 | 0.287 | 0.216 | 0.759 | 0.787 | 0.669 | 0.317 | 1.42 | 1.45 | 0.911 | 0.808 | 1.3 | 1.2 | 1.23 | 0.912 | 1.03 | 1.04 | 1.01 | 0.941
C[C@@H]1CN(CC(=O)Nc2ccc3c(c2)Cc2cccc(-c4cc(=O)cc(N5CCOCC5)o4)c2S3)C[C@H](C)O1 + CS(=O)(=O)CCNCc1ccc(-c2ccc3ncnc(Nc4ccc(OCc5cccc(F)c5)c(Cl)c4)c3c2)o1 [Lapatinib] (partner 2 µM) | 1.09 | 1.06 | 0.96 | 0.775 | 0.984 | 0.927 | 1.1 | 0.694 | 0.255 | 0.219 | 0.214 | 0.208 | 0.951 | 0.777 | 0.956 | 0.339 | 1.24 | 1.1 | 0.955 | 0.688 | 0.986 | 0.917 | 1.14 | 0.831 | 1.01 | 0.956 | 1.01 | 0.816
C[C@@H]1CN(CC(=O)Nc2ccc3c(c2)Cc2cccc(-c4cc(=O)cc(N5CCOCC5)o4)c2S3)C[C@H](C)O1 + CS(=O)(=O)N1CCN(Cc2cc3nc(-c4cccc5[nH]ncc45)nc(N4CCOCC4)c3s2)CC1 [Pictilisib] (partner 1 µM) | 0.962 | 0.97 | 0.925 | 0.8 | 0.769 | 0.791 | 0.75 | 0.649 | 0.487 | 0.412 | 0.244 | 0.266 | 0.3 | 0.372 | 0.301 | 0.234 | 0.249 | 0.243 | 0.238 | 0.205 | 0.524 | 0.594 | 0.444 | 0.323 | 0.898 | 0.739 | 0.848 | 0.689
C[C@@H]1CN(CC(=O)Nc2ccc3c(c2)Cc2cccc(-c4cc(=O)cc(N5CCOCC5)o4)c2S3)C[C@H](C)O1 + C[C@@H](Oc1cc(-c2cnn(C3CCNCC3)c2)cnc1N)c1c(Cl)ccc(F)c1Cl [Crizotinib] (partner 1 µM) | 0.829 | 0.719 | 0.597 | 0.528 | 0.747 | 0.644 | 0.613 | 0.385 | 0.202 | 0.203 | 0.201 | 0.2 | 1.02 | 0.671 | 0.657 | 0.36 | 0.607 | 0.678 | 0.595 | 0.513 | 0.909 | 0.772 | 0.874 | 0.522 | 0.915 | 0.92 | 0.844 | 0.837
